Laboratory results: the supplement of paper PMC10307832

How the values were obtained:
Assay in all cases: relative viability (nuclei count vs DMSO), 5 days (fraction); higher = more cells survive
[1] = compound: COC1=CC=C(C=C1)COC2=C(C=C(C=C2)CC3=CN=C(N=C3N)N)OC [GW-2580] + CCNC(=O)c1noc(-c2cc(C(C)C)c(O)cc2O)c1-c1ccc(CN2CCOCC2)cc1 [Luminespib] (partner 0.01 µM)
Procedure, shortened: (§1)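 Values are medians from duplicate plates. Each reflects relative viability, defined as the nuclei count of treated wells over that of vehicle wells. Lung cancer cell lines in 1536-well plates were pin-tool dosed one day after seeding with one drug alone or with a fixed anchor-drug dose plus five library-drug doses (not always all listed) in √10 steps, then fixed, stained and imaged at 4× after 5 days.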

[2] = compound: COC1=CC=C(C=C1)COC2=C(C=C(C=C2)CC3=CN=C(N=C3N)N)OC [GW-2580] + Cc1nc(Nc2ncc(C(=O)Nc3c(C)cccc3Cl)s2)cc(N2CCN(CCO)CC2)n1 [Dasatinib] (partner 0.075 µM)
Procedure, shortened: as §1

[3] = compound: Cc1cnc(Nc2ccc(OCCN3CCCC3)cc2)nc1Nc1cccc(S(=O)(=O)NC(C)(C)C)c1 [Fedratinib] + Cc1nc(NC(=O)N2CCC[C@H]2C(N)=O)sc1-c1ccnc(C(C)(C)C(F)(F)F)c1 [Alpelisib] (partner 2 µM)
Procedure, shortened: as §1

[4] = compound: Cc1cnc(Nc2ccc(OCCN3CCCC3)cc2)nc1Nc1cccc(S(=O)(=O)NC(C)(C)C)c1 [Fedratinib] + O=C(CCCCCCC(=O)Nc1ccccc1)NO [Vorinostat] (partner 1 µM)
Procedure, shortened: as §1

Cell Line	relative viability ([1]; first compound 0.08 µM)	relative viability ([1]; first compound 0.8 µM)	relative viability ([1]; first compound 2.53 µM)	relative viability ([1]; first compound 8 µM)	relative viability ([2]; first compound 0.08 µM)	relative viability ([2]; first compound 0.8 µM)	relative viability ([2]; first compound 2.53 µM)	relative viability ([2]; first compound 8 µM)	relative viability ([3]; first compound 0.1 µM)	relative viability ([3]; first compound 0.3162 µM)	relative viability ([3]; first compound 1 µM)	relative viability ([4]; first compound 0.1 µM)	relative viability ([4]; first compound 0.3162 µM)	relative viability ([4]; first compound 1 µM)
NCI-H1651	0.877	1.01	0.8	0.823	0.307	0.447	0.43	0.582	1.16	1.01	0.9	0.498	0.567	0.552
NCI-H441	0.307	0.621	0.493	0.293	0.679	0.764	0.582	0.534	0.607	0.655	0.557	0.921	0.749	0.615
LCLC-103H	1.01	0.895	0.844	0.839	0.451	0.496	0.511	0.484	1.07	0.816	0.938	0.768	0.752	0.718
LCLC-97TM1	0.771	0.728	0.799	0.694	0.891	0.866	0.899	0.821	0.201	0.288	0.189	0.74	0.669	0.456
NCI-H727		0.539	0.344	0.382	0.414	0.409	0.44	0.299	0.597	0.609	0.532	1.15	1.08	1.13
NCI-H1355	0.816	0.841	0.694	0.669	0.831	0.779	0.468	0.649	0.731	0.853	0.832	0.688	0.622	0.596
HOP-62	1.02	1.04	0.91	0.917	0.756	0.728	0.639	0.697	0.941	0.759	0.89	0.64	0.605	0.594
NCI-H2085	0.529	0.364	0.436	0.411	0.277	0.217	0.25	0.258	0.977	0.963	0.922	0.77	0.825	0.787
